Experimental data published in PMC6199744, “Development of Chemical Proteomics for the Folateome and Analysis of the Kinetoplastid Folateome” (ACS Infectious Diseases, 2018).
“And” between values parts separate entries of the source, which are not always exact repeats. Equal entries are not always repeated. Where two headings read alike, the source gives them in different places.

Tested on: T. brucei lysate proteins
Type: binding, Trypanosoma brucei

For `NCCCNc1ccc(C(=O)NC(CCC(=O)O)C(=O)O)cc1` (stereo not shown) [compound 7], the “fold change vs vehicle control” value was 0.96 and 1.1 and 0.99, the fold change (protein CZB00000046.1 HA-UBIQUITIN, vehicle control = 1) was 0.74 and the fold change (protein RHS6A, vehicle control = 1) was 0.95. The “fold change vs vehicle control” value (protein TB09.160.3270 ATP-DEPENDENT DEAD BOX HELICASE, PUTATIVE, vehicle control = 1) was 0.89, the fold change (protein TB09.160.3710 PRO[…] NUCLEAR ANTIGEN (PCNA), PUTATIVE, vehicle control = 1) was 0.81 and the “fold change vs vehicle control” value (protein TB09.160.4200 60S ACIDIC RIBOSOMAL PROTEIN, PUTATIVE, vehicle control = 1) was 0.64. The “fold change vs vehicle control” value (protein TB09.160.4250 TR[…], vehicle control = 1) was 0.94, the “fold change vs vehicle control” value (protein TB09.211.2630 60S RIBOSOMAL PROTEIN L23, PUTATIVE, vehicle control = 1) was 0.98 and the fold change (protein TB09.211.4460 ADP-RI[…], PUTATIVE, vehicle control = 1) was 0.93. The fold change (protein TB09.211.4513 KIN[…] PROTEIN KMP-11, vehicle control = 1) was 0.88, the fold change (protein TB09.211.4760 METACASPASE 5, PUTATIVE, vehicle control = 1) was 1.1 and the “fold change vs vehicle control” value (protein TB09.244.2780 HY[…], CONSERVED, vehicle control = 1) was 1.54. The fold change (protein TB11.01.0450 PROTEIN PHOSPHATASE 1, PUTATIVE, vehicle control = 1) was 1, the “fold change vs vehicle control” value (protein TB11.01.2560 40S RIBOSOMAL PROTEIN SA, PUTATIVE, vehicle control = 1) was 0.82 and the “fold change vs vehicle control” value (protein TB11.01.3180 GUANINE NUCLEOTIDE-BINDING PROTEIN BETA SUBUNIT-LIKE PROTEIN, vehicle control = 1) was 0.93. For the same molecule, the “fold change vs vehicle control” value (protein TB11.01.4370 HY[…], CONSERVED, vehicle control = 1) was 0.8, the fold change (protein TB11.01.5350 PROFILIN, vehicle control = 1) was 0.98 and the fold change (protein TB11.01.5860 T-COMPLEX PROTEIN 1, EPSILON SUBUNIT, PUTATIVE, vehicle control = 1) was 0.91. The fold change (protein TB11.01.8590 RAB-LIKE 5, SMALL G PROTEIN, vehicle control = 1) was 0.85, the fold change (protein TB11.01.8740 PROTEIN PHOSPHATASE 4, PUTATIVE, vehicle control = 1) was 0.77 and the “fold change vs vehicle control” value (protein TB11.02.2040 HY[…], CONSERVED (ALBA-Domain Protein), vehicle control = 1) was 0.84. The “fold change vs vehicle control” value (protein TB11.02.2420 HY[…], CONSERVED, vehicle control = 1) was 0.99, the “fold change vs vehicle control” value (protein TB11.02.2640 DYNEIN IN[…] IC78, PUTATIVE, vehicle control = 1) was 1.17 and the fold change (protein TB11.02.2960 MIT[…] PROTEIN, PUTATIVE, vehicle control = 1) was 0.88. For the same molecule, the “fold change vs vehicle control” value (protein TB11.02.4170 40S RIBOSOMAL PROTEIN S5, PUTATIVE, vehicle control = 1) was 1.18, the fold change (protein TB11.02.4700 14-3-3 PROTEIN, vehicle control = 1) was 1 and the “fold change vs vehicle control” value (protein TB11.03.0250 C[…], vehicle control = 1) was 0.88. For the same molecule, the “fold change vs vehicle control” value (protein TB11.03.0530 HY[…], CONSERVED (hy[…] SCD6.10), vehicle control = 1) was 1.76, the “fold change vs vehicle control” value (protein TB427TMP.01.0480 HY[…], CONSERVED, vehicle control = 1) was 1 and the fold change (protein TB427TMP.01.1470 60S RIBOSOMAL PROTEIN L10A, PUTATIVE, vehicle control = 1) was 0.84. For the same molecule, the “fold change vs vehicle control” value (protein TB427TMP.01.4280 HY[…], CONSERVED, vehicle control = 1) was 1.2, the “fold change vs vehicle control” value (protein TB427TMP.01.5680 HY[…], CONSERVED, vehicle control = 1) was 0.98 and the “fold change vs vehicle control” value (protein TB427TMP.01.5690 DRBD4, vehicle control = 1) was 0.89. The fold change (protein TB427TMP.01.5960 MIT[…] PROTEIN, PUTATIVE, vehicle control = 1) was 0.93, the “fold change vs vehicle control” value (protein TB427TMP.01.6890 SMALL GTPASE, PUTATIVE, vehicle control = 1) was 1.8 and the fold change (protein TB427TMP.01.7490 HY[…], CONSERVED, vehicle control = 1) was 0.96. For the same molecule, the “fold change vs vehicle control” value (protein TB427TMP.01.7530 HY[…], CONSERVED, vehicle control = 1) was 1, the fold change (protein TB427TMP.01.8390 HY[…], CONSERVED, vehicle control = 1) was 0.96 and the fold change (protein TB427TMP.01.8570 DYNEIN LIGHT IN[…] D1BLIC, PUTATIVE, vehicle control = 1) was 0.95. For the same molecule, the fold change (protein TB427TMP.02.0030 DYNEIN HEAVY CHAIN, PUTATIVE, vehicle control = 1) was 0.88, the fold change (protein TB427TMP.02.0460 NUCLEOPORIN, vehicle control = 1) was 0.98 and the fold change (protein TB427TMP.02.0750 T-COMPLEX PROTEIN 1, ZETA SUBUNIT, PUTATIVE, vehicle control = 1) was 1. The fold change (protein TB427TMP.02.0760 DYNEIN HEAVY CHAIN, PUTATIVE, vehicle control = 1) was 0.91, the fold change (protein TB427TMP.02.1070 AMINOPEPTIDASE, PUTATIVE, vehicle control = 1) was 0.72 and the “fold change vs vehicle control” value (protein TB427TMP.02.1085 40S RIBOSOMAL PROTEIN S4, PUTATIVE, vehicle control = 1) was 0.78. The fold change (protein TB427TMP.02.1106 NUCLEOBASE/NUCLEOSIDE TRANSPORTER 8 1, vehicle control = 1) was 0.95, the “fold change vs vehicle control” value (protein TB427TMP.02.2070 LONG-CHAIN-FATTY-ACID-COA LIGASE, PUTATIVE, vehicle control = 1) was 0.95 and the “fold change vs vehicle control” value (protein TB427TMP.02.2890 HY[…], CONSERVED, vehicle control = 1) was 1.22. The “fold change vs vehicle control” value (protein TB427TMP.02.4300 HY[…], CONSERVED, vehicle control = 1) was 1.4, the fold change (protein TB427TMP.02.4550 HY[…], CONSERVED, vehicle control = 1) was 0.93 and the “fold change vs vehicle control” value (protein TB427TMP.02.5450 GLUCOSE-REGULATED PROTEIN 78, PUTATIVE, vehicle control = 1) was 0.97. It also gave a fold change (protein TB427TMP.02.5660 HY[…], CONSERVED, vehicle control = 1) of 0.82, a fold change (protein TB427TMP.03.0150 HY[…], CONSERVED, vehicle control = 1) of 0.91 and a fold change (protein TB427TMP.160.2370 HY[…], CONSERVED, vehicle control = 1) of 0.91. The “fold change vs vehicle control” value (protein TB427TMP.160.4620 INOSITOL-1(OR 4)-MONOPHOSPHATASE, PUTATIVE, vehicle control = 1) was 0.99, the “fold change vs vehicle control” value (protein TB427TMP.160.4630 HY[…], CONSERVED, vehicle control = 1) was 0.83 and the fold change (protein TB427TMP.160.4770 PROTEIN KINASE, PUTATIVE, vehicle control = 1) was 0.89. For the same molecule, the fold change (protein TB427TMP.160.5670 HY[…], CONSERVED, vehicle control = 1) was 1.47, the fold change (protein TB427TMP.211.0740 P21 ANTIGEN PROTEIN, PUTATIVE, vehicle control = 1) was 0.79 and the fold change (protein TB427TMP.211.0930 POLYADENYLATE-BINDING PROTEIN 1 (POLY(A)-BINDING PROTEIN 1) (PABP 1), vehicle control = 1) was 0.89. The fold change (protein TB427TMP.211.2460 HY[…], CONSERVED, vehicle control = 1) was 0.96, the “fold change vs vehicle control” value (protein TB427TMP.211.2570 T-COMPLEX PROTEIN 1, ETA SUBUNIT, PUTATIVE, vehicle control = 1) was 0.8 and the “fold change vs vehicle control” value (protein TB427TMP.211.3140 HY[…], CONSERVED, vehicle control = 1) was 2.05. The “fold change vs vehicle control” value (protein TB427TMP.211.3510 ATP-DEPENDENT DEAD/H RNA HELICASE, PUTATIVE, vehicle control = 1) was 0.97, the “fold change vs vehicle control” value (protein TB427TMP.211.4170 HY[…], CONSERVED, vehicle control = 1) was 1.18 and the “fold change vs vehicle control” value (protein TB427TMP.22.0003 PHOSPH[…], PUTATIVE, vehicle control = 1) was 1.32. The fold change (protein TB427TMP.244.2840 HY[…], CONSERVED, vehicle control = 1) was 0.93, the fold change (protein TB427TMP.47.0011 HY[…], CONSERVED, vehicle control = 1) was 0.87 and the “fold change vs vehicle control” value (protein TB427TMP.55.0006 INTR[…] PROTEIN IFT88, vehicle control = 1) was 0.91. For the same molecule, the “fold change vs vehicle control” value (protein TB427.01.120 RETRO[…] SPOT (RHS) PROTEIN, PUTATIVE, vehicle control = 1) was 0.9, the fold change (protein TB427.01.2570 COATOMER BETA SUBUNIT, vehicle control = 1) was 0.94 and the fold change (protein TB427.01.5030 LEUCINE-RICH REPEAT PROTEIN (LRRP), PUTATIVE, vehicle control = 1) was 0.98. The “fold change vs vehicle control” value (protein TB427.02.2970 MIT[…] PROTEIN, PUTATIVE, vehicle control = 1) was 1.23, the “fold change vs vehicle control” value (protein TB427.02.3880 HET[…] RIBONUC[…]/F, PUTATIVE, vehicle control = 1) was 1.22 and the “fold change vs vehicle control” value (protein TB427.03.1210 PROTEIN TRANSPORT PROTEIN SEC24, vehicle control = 1) was 1.18. The “fold change vs vehicle control” value (protein TB427.03.3160 POLY(A) POLYMERASE, vehicle control = 1) was 1.17, the “fold change vs vehicle control” value (protein TB427.03.3950 HY[…], CONSERVED, vehicle control = 1) was 0.95 and the “fold change vs vehicle control” value (protein TB427.03.4040 HY[…], CONSERVED (Ankyrinrepeat), vehicle control = 1) was 1.73. For the same molecule, the “fold change vs vehicle control” value (protein TB427.04.1080 V-TYPE ATPASE, A SUBUNIT, PUTATIVE, vehicle control = 1) was 1.34, the fold change (protein TB427.04.1090 ENDOSOMAL INTEGRAL MEMBRANE PROTEIN, PUTATIVE, vehicle control = 1) was 1.3 and the fold change (protein TB427.04.1300 HY[…], CONSERVED, vehicle control = 1) was 0.92. For the same molecule, the “fold change vs vehicle control” value (protein TB427.04.1660 MIT[…] PROTEIN, PUTATIVE, vehicle control = 1) was 0.89, the fold change (protein TB427.04.310 HY[…], CONSERVED, vehicle control = 1) was 0.56 and the fold change (protein TB427.04.3890 ATP-DEPENDENT RNA HELICASE, PUTATIVE, vehicle control = 1) was 0.88. It also gave a fold change (protein TB427.04.420 PHOSPHATIDYLINOSITOL 3-KINASE (TOR2), vehicle control = 1) of 0.71, a fold change (protein TB427.04.450 COATOMER ALPHA SUBUNIT, PUTATIVE, vehicle control = 1) of 0.89 and a fold change (protein TB427.04.5010 CALRETICULIN, PUTATIVE, vehicle control = 1) of 0.83. The fold change (protein TB427.04.5200 NUCLEOPORIN (NUP54/57), PUTATIVE, vehicle control = 1) was 0.99.
